In US8431556B2, “C-21-keto lupane derivatives preparation and use thereof” (Vertex Pharmaceuticals Incorporated, priority 2008, dated 2013):

The molecules below were run on HIV-1 (HIVIIIB) (assay: HIV-1 replication in MT2 cell line with and without 30% human serum (viral RT activity in supernatant)). Settings: Human immunodeficiency virus 1, MT2, MT-2 cells, with 30% human serum, average IC50 if tested more than once, read-out: MT-2 (HIVIIIB) with 30% HS IC50 range.
Assay type: cell-based
Procedure: HIV-1 Replication in MT2 cell line with and without 30% human serum: The cells are infected at a Multiciplicity of Infection (MOI) of 0.5 for 3 h and then washed twice with complete media to remove residual virus. Cells are then resuspended at 0.5×10^6/ml in complete medium (RPMI, 10% FBS, 1% sodium pyruvate), and seeded into 96-well plates (6.25×10^4/well). The cells are cultured in the presence or absence of various concentrations of test compounds in serial dilutions for 3 days at 37° C. The test compounds are serially diluted in complete medium supplemented or not with 30% human serum. After 3 days, 100 μL of cultured medium with cells are replaced with 120 μL of freshly diluted test compounds in complete medium containing or not 30% Human serum. The level of HIV-1 replication is determined at days 5 after infection by the presence of viral RT activity in harvested supernatant fluid. The IC50 and IC90 values for the virus replication are determined by using GRAPHPAD PRISM software.
The IC50 of the compounds tested in accordance with the HIV replication activity assay MT-2 (HIVIIIB) are represented in Table 4 (without HS) and Table 5 (with 30% HS)

Row | Structure (SMILES) | IC50 [nM]
1 | CC(C)C1=C2[C@H]3CC[C@@H]4[C@@]5(C)CC[C@H](OC(=O)CC(C)(C)C(=O)O)C(C)(C)[C@@H]5CC[C@@]4(C)[C@]3(C)CC[C@@]2(C(=O)N2CCCCC2)CC1=O [9-6, 3β-O-(3′,3′-Dimethylsuccinyl)-21-oxolup-18-en-28-oic acid N-piperidinyl acetamide] | < 199
2 | CC(C)C1=C2[C@H]3CC[C@@H]4[C@@]5(C)CC[C@H](OC(=O)CC(C)(C)C(=O)O)C(C)(C)[C@@H]5CC[C@@]4(C)[C@]3(C)CC[C@@]2(C(=O)N2CCOCC2)CC1=O [9-7, 3β-O-(3′,3′-Dimethylsuccinyl)-21-oxolup-18-en-28-oic acid N-morpholyl acetamide] | < 199
3 | CC(=O)N1CCN(C(=O)[C@@]23CC[C@]4(C)[C@H](CC[C@@H]5[C@@]6(C)CC[C@H](OC(=O)CC(C)(C)C(=O)O)C(C)(C)[C@@H]6CC[C@]54C)C2=C(C(C)C)C(=O)C3)CC1 [9-8, 3β-O-(3′,3′-Dimethylsuccinyl)-21-oxolup-18-en-28-oic acid N-(4-acetylpiperazinyl) acetamide] | < 199
4 | CC(C)C1=C2[C@H]3CC[C@@H]4[C@@]5(C)CC[C@H](OC(=O)CC(C)(C)C(=O)O)C(C)(C)[C@@H]5CC[C@@]4(C)[C@]3(C)CC[C@@]2(C(=O)N2CCN(C)CC2)CC1=O [9-9, 3β-O-(3′,3′-Dimethylsuccinyl)-21-oxolup-18-en-28-oic acid N-(4-methylpiperazinyl) acetamide] | < 199
5 | CC(C)C1=C2[C@H]3CC[C@@H]4[C@@]5(C)CC[C@H](OC(=O)CC(C)(C)C(=O)O)C(C)(C)[C@@H]5CC[C@@]4(C)[C@]3(C)CC[C@@]2(C(=O)Nc2ccccc2)CC1=O [9-10, 3β-O-(3′,3′-Dimethylsuccinyl)-21-oxolup-18-en-28-oic acid N-benzamide] | < 199
6 | CC(C)C1=C2[C@H]3CC[C@@H]4[C@@]5(C)CC[C@H](OC(=O)CC(C)(C)C(=O)O)C(C)(C)[C@@H]5CC[C@@]4(C)[C@]3(C)CC[C@@]2(C(=O)N(C)Cc2ccccc2)CC1=O [9-11, 3β-O-(3′,3′-Dimethylsuccinyl)-21-oxolup-18-en-28-oic acid N-methyl-N-benzylamide] | < 199
7 | CC(C)C1=C2[C@H]3CC[C@@H]4[C@@]5(C)CC[C@H](OC(=O)CC(C)(C)C(=O)O)C(C)(C)[C@@H]5CC[C@@]4(C)[C@]3(C)CC[C@@]2(C(=O)NCc2ccccc2Cl)CC1=O [9-12, 3β-O-(3′,3′-Dimethylsuccinyl)-21-oxolup-18-en-28-oic acid N-2-chloro-benzylamide] | < 199
8 | CC(C)C1=C2[C@H]3CC[C@@H]4[C@@]5(C)CC[C@H](OC(=O)CC(C)(C)C(=O)O)C(C)(C)[C@@H]5CC[C@@]4(C)[C@]3(C)CC[C@@]2(C(=O)NCc2ccc(Cl)cc2)CC1=O [9-14, 3β-O-(3′,3′-Dimethylsuccinyl)-21-oxolup-18-en-28-oic acid N-4-chloro-benzylamide] | < 199
9 | COc1ccc(CNC(=O)[C@@]23CC[C@]4(C)[C@H](CC[C@@H]5[C@@]6(C)CC[C@H](OC(=O)CC(C)(C)C(=O)O)C(C)(C)[C@@H]6CC[C@]54C)C2=C(C(C)C)C(=O)C3)cc1 [9-15, 3β-O-(3′,3′-Dimethylsuccinyl)-21-oxolup-18-en-28-oic acid N-4-methoxy-benzylamide] | < 199
10 | CC(C)C1=C2[C@H]3CC[C@@H]4[C@@]5(C)CC[C@H](OC(=O)CC(C)(C)C(=O)O)C(C)(C)[C@@H]5CC[C@@]4(C)[C@]3(C)CC[C@@]2(C(=O)NCc2ccccn2)CC1=O [9-16, 3β-O-(3′,3′-Dimethylsuccinyl)-21-oxolup-18-en-28-oic acid N-pyridin-2-ylmethylamide] | < 199
11 | CC(C)C1=C2[C@H]3CC[C@@H]4[C@@]5(C)CC[C@H](OC(=O)CC(C)(C)C(=O)O)C(C)(C)[C@@H]5CC[C@@]4(C)[C@]3(C)CC[C@@]2(C(=O)NCc2cccnc2)CC1=O [9-17, 3β-O-(3′,3′-Dimethylsuccinyl)-21-oxolup-18-en-28-oic acid N-pyridin-3-ylmethylamide] | < 199
12 | CC(C)C1=C2[C@H]3CC[C@@H]4[C@@]5(C)CC[C@H](OC(=O)CC(C)(C)C(=O)O)C(C)(C)[C@@H]5CC[C@@]4(C)[C@]3(C)CC[C@@]2(C(=O)NCc2ccncc2)CC1=O [9-18, 3β-O-(3′,3′-Dimethylsuccinyl)-21-oxolup-18-en-28-oic acid N-pyridin-4-ylmethylamide] | < 199
13 | CC(C)C1=C2[C@H]3CC[C@@H]4[C@@]5(C)CC[C@H](OC(=O)CC(C)(C)C(=O)O)C(C)(C)[C@@H]5CC[C@@]4(C)[C@]3(C)CC[C@@]2(C(=O)NCCNC(=O)OC(C)(C)C)CC1=O [9-20, 3β-O-(3′,3′-Dimethylsuccinyl)-21-oxolup-18-en-28-oic acid N-(2-acetylamino-ethyl)-carbamic acid tert-butyl ester] | < 199
14 | CC(C)C1=C2[C@H]3CC[C@@H]4[C@@]5(C)CC[C@H](OC(=O)CC(C)(C)C(=O)O)C(C)(C)[C@@H]5CC[C@@]4(C)[C@]3(C)CC[C@@]2(C(=O)NCCN)CC1=O [9-21, 3β-O-(3′,3′-Dimethylsuccinyl)-21-oxolup-18-en-28-oic acid N-(2-amino-ethyl)-acetamide] | < 199
15 | CC(=O)NCCNC(=O)[C@@]12CC[C@]3(C)[C@H](CC[C@@H]4[C@@]5(C)CC[C@H](OC(=O)CC(C)(C)C(=O)O)C(C)(C)[C@@H]5CC[C@]43C)C1=C(C(C)C)C(=O)C2 [9-22, 3β-O-(3′,3′-Dimethylsuccinyl)-21-oxolup-18-en-28-oic acid N-(2-acetylamino-ethyl)-acetamide] | < 199
16 | CC(C)NC(=O)NCCNC(=O)[C@@]12CC[C@]3(C)[C@H](CC[C@@H]4[C@@]5(C)CC[C@H](OC(=O)CC(C)(C)C(=O)O)C(C)(C)[C@@H]5CC[C@]43C)C1=C(C(C)C)C(=O)C2 [9-23, 3β-O-(3′,3′-Dimethylsuccinyl)-21-oxolup-18-en-28-oic acid N-[2-(3-isopropyl-ureido)-ethyl]-acetamide] | < 199
17 | COC(=O)NCCNC(=O)[C@@]12CC[C@]3(C)[C@H](CC[C@@H]4[C@@]5(C)CC[C@H](OC(=O)CC(C)(C)C(=O)O)C(C)(C)[C@@H]5CC[C@]43C)C1=C(C(C)C)C(=O)C2 [9-24, 3β-O-(3′,3′-Dimethylsuccinyl)-21-oxolup-18-en-28-oic acid N-(2-acetylamino-ethyl)-carbamic acid methyl ester] | < 199
18 | CC(C)C1=C2[C@H]3CC[C@@H]4[C@@]5(C)CC[C@H](OC(=O)CC(C)(C)C(=O)O)C(C)(C)[C@@H]5CC[C@@]4(C)[C@]3(C)CC[C@@]2(C(=O)Nc2ccccn2)CC1=O [9-25, 3β-O-(3′,3′-Dimethylsuccinyl)-21-oxolup-18-en-28-oic acid N-pyridin-2-yl-acetamide] | < 199

Same assay, conditions: Human immunodeficiency virus 1, MT2, MT-2 cells, without HS, average IC50 if tested more than once, read-out: MT-2 (HIVIIIB) IC50 range

Row | Structure (SMILES) | IC50 [nM]
19 | CC(C)C1=C2[C@H]3CC[C@@H]4[C@@]5(C)CC[C@H](OC(=O)CC(C)(C)C(=O)O)C(C)(C)[C@@H]5CC[C@@]4(C)[C@]3(C)CC[C@@]2(C(=O)NCc2ccccc2)CC1=O [9-1, 3β-O-(3′,3′-Dimethylsuccinyl)-21-oxolup-18-en-28-oic acid N-benzylamide] | < 199
20 | CNC(=O)[C@@]12CC[C@]3(C)[C@H](CC[C@@H]4[C@@]5(C)CC[C@H](OC(=O)CC(C)(C)C(=O)O)C(C)(C)[C@@H]5CC[C@]43C)C1=C(C(C)C)C(=O)C2 [9-2, 3β-O-(3′,3′-Dimethylsuccinyl)-21-oxolup-18-en-28-oic acid N-methylamide] | < 199
21 | CC(C)NC(=O)[C@@]12CC[C@]3(C)[C@H](CC[C@@H]4[C@@]5(C)CC[C@H](OC(=O)CC(C)(C)C(=O)O)C(C)(C)[C@@H]5CC[C@]43C)C1=C(C(C)C)C(=O)C2 [9-3, 3β-O-(3′,3′-Dimethylsuccinyl)-21-oxolup-18-en-28-oic acid N-isopropylamide] | < 199
22 | CC(C)C1=C2[C@H]3CC[C@@H]4[C@@]5(C)CC[C@H](OC(=O)CC(C)(C)C(=O)O)C(C)(C)[C@@H]5CC[C@@]4(C)[C@]3(C)CC[C@@]2(C(=O)NC2CCCCC2)CC1=O [9-4, 3β-O-(3′,3′-Dimethylsuccinyl)-21-oxolup-18-en-28-oic acid N-cyclohexylamide] | < 199
23 | CC(C)C1=C2[C@H]3CC[C@@H]4[C@@]5(C)CC[C@H](OC(=O)CC(C)(C)C(=O)O)C(C)(C)[C@@H]5CC[C@@]4(C)[C@]3(C)CC[C@@]2(C(=O)NCC2CCCCC2)CC1=O [9-5, 3β-O-(3′,3′-Dimethylsuccinyl)-21-oxolup-18-en-28-oic acid N-cyclohexyl methylamide] | < 199
24 | CC(C)C1=C2[C@H]3CC[C@@H]4[C@@]5(C)CC[C@H](OC(=O)CC(C)(C)C(=O)O)C(C)(C)[C@@H]5CC[C@@]4(C)[C@]3(C)CC[C@@]2(C(=O)NCc2cccc(Cl)c2)CC1=O [9-13, 3β-O-(3′,3′-Dimethylsuccinyl)-21-oxolup-18-en-28-oic acid N-3-chloro-benzylamide] | < 199
25 | COc1ccc(CCNC(=O)[C@@]23CC[C@]4(C)[C@H](CC[C@@H]5[C@@]6(C)CC[C@H](OC(=O)CC(C)(C)C(=O)O)C(C)(C)[C@@H]6CC[C@]54C)C2=C(C(C)C)C(=O)C3)cc1 [9-19, 3β-O-(3′,3′-Dimethylsuccinyl)-21-oxolup-18-en-28-oic acid N-[2-(4-methoxy-phenyl)-ethyl]-acetamide] | < 199
